According to patent US12569875B2, “Film formation method” (FLOSFIA INC., priority 2023, dated 2026):

Assays:
[1] = Thermogravimetric-differential thermal analysis (TG-DTA) of iridium complexes; assay type: physicochemical
Excerpt: The iridium complexes used in Examples and Comparative Examples described above were subjected to a thermogravimetric-differential thermal analysis (TG-DTA) under an oxygen atmosphere and a nitrogen atmosphere respectively, to examine decomposition properties of the complexes. […] As the iridium complex, the iridium complex represented be the above formula (3) and the iridium complex represented by the above formula (5) were used for Examples and Comparative Examples respectively.

[2] = Preparation of an aqueous iridium complex solution (water solubility); assay type: physicochemical; settings: aqueous solution at iridium concentration 0.01 mol/L could not be prepared

mass loss at 400 to 600° C. ([1]; TG-DTA, 400 to 600° C., FIG. 3): little mass loss
mass loss ratio ([1]; at 400° C., temperature increase rate 20° C./min, FIG. 2 / FIG. 3): about 70%
solubility in water [2]: insoluble in water
Substance: iridium acetylacetonato [formula (5)]
